Data on 12 molecules can be found in patent publication US8193228B2, “Substituted imidazole as bombesin receptor subtype-3 modulators” (Merck Sharp & Dohme Corp., priority 2006, dated 2012).

In the first assay the target is T1, human BRS-3 (Homo sapiens, UniProt P32247).
T1 construct: expressed in transfected cells
T1 sequence (P32247 1-399): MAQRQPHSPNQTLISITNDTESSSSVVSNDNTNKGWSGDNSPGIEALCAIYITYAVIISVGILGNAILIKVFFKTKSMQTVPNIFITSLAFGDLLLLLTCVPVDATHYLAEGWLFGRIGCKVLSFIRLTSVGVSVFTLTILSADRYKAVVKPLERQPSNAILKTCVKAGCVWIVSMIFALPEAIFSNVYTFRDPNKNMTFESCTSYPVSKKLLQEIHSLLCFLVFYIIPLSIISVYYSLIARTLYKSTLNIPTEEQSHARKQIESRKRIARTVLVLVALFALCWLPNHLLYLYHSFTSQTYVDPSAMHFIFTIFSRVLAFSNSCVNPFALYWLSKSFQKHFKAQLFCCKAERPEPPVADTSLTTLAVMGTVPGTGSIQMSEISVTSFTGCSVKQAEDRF
The experiment in a line: BRS-3 receptor binding assay (radioligand filtration). Conditions: read-out: BRS-3 binding IC50; selected compounds. As for the experimental part: Dissociated cells were collected by centrifuging at 1000 rpm for 10 minutes. Cell pellets were resuspended and homogenized at 4° C. using a Polytron homogenizer (setting 40, 20 stokes) in approximately 10 mL membrane preparation buffer (10 mM Tris pH 7.4, 0.01 mM Pefabloc, 10 μM phosphoramidon and 40 μg/mL Bacitracin) per T175 flask. After centrifugation at 2200 rpm (1000×g) for 10 minutes at 4° C., the supernatant was transferred to a clean centrifuge tube and spun at 18,000 rpm (38,742×g) for 15 minutes. at 4° C.
The filters were washed five times with ice-cold washing buffer (1×PBS without Mg^++ and Ca^++). The radioactivity was determined by adding 30 μl of microscintillant/well after each plate was dried at room temperature overnight or placed at 50° C. for 1 hr.
The radioligand, [^3H]-1-{4-[(4,5-difluoro-2-hydroxycarbonylphenyl)phenyl]}-2-(4-cyclohexylmethyl-1H-imidazol-2-yl)ethane, was used for binding to receptor membranes generated with BRS3 from other species and was also utilized for the human receptor. […] After incubation for 1-2 hours at room temperature, membrane bound [^3H]-biphenyl was separated from free radiologand by filtering through GF/C filters presoaked in 1% PEI solution. The filters were washed five times with ice-cold washing buffer (50 mM Tris pH 7.4, 10 mM MgCl2, 2.5 mM EDTA and 0.02% Triton X-100). The radioactivity was determined by adding 30 μl of microscintillant/well after each plate was dried at room temperature overnight or placed at 50° C. for 1 hr.
A Packard Top Count was used to read the filter plates. The data in % inhibition of binding was plotted vs. the log molar concentration of receptor ligand (compound). The IC50 was reported as the inflection point of the resulting sigmoidal curve.
For `O[C@@](Cc1nc(CC2(C(F)(F)F)CC2)c[nH]1)(c1ccc(-n2cccn2)cc1)C(F)(F)F` [Example 31a, (2S)-1,1,1-trifluoro-2-[4-(1H-pyrazol-1-yl)phenyl]-3-(4-{[1-(trifluoromethyl)cyclopropyl]methyl}-1H-imidazol-2-yl)propan-2-ol], the IC50 – broadly, the concentration needed to halve the response being measured – came to 0.036 µM.

Staying with this assay, now noted: selected compounds; read-out: BRS-3 binding IC50.
Consider `OC(Cc1nc(CC2(C(F)(F)F)CC2)c[nH]1)(c1ccc(-c2ccc(F)cn2)cc1)C(F)(F)F` (single isomer, unassigned) [Example 55, 1,1,1-trifluoro-2-[4-(5-fluoropyridin-2-yl)phenyl]-3-(4-{[1-(trifluoromethyl)cyclopropyl]methyl}-1H-imidazol-2-yl)propan-2-ol], for which the IC50 was found to be 0.056 µM. With `OC(Cc1nc(CC2(C(F)(F)F)CC2)c[nH]1)(c1ccc(-n2cccn2)cc1)C(F)F` (single isomer, unassigned) [Example 72, 1,1-difluoro-2-[4-(1H-pyrazol-1-yl)phenyl]-3-(4-{[1-(trifluoro-methyl)cyclopropyl]methyl}-1H-imidazol-2-yl)propan-2-ol], the IC50 came out at 0.012 µM. Regarding `CC(C)(C)Cc1c[nH]c(CC(O)(c2ccc(-c3ccc(F)cn3)cc2)C(F)(F)F)n1` (stereo not drawn) [Example 1, 3-[4-(2,2-dimethylpropyl)-1H-imidazol-2-yl]-1,1,1-trifluoro-2-[4-(5-fluoropyridin-2-yl)phenyl]propan-2-ol], the IC50 was 0.018 µM.

On to `CC(C)(C)Cc1c[nH]c(CC(C)(O)c2ccc(-c3ccc(F)cn3)cc2)n1` (stereo not drawn) [Example 4, 1-[4-(2,2-dimethylpropyl)-1H-imidazol-2-yl]-2-[4-(5-fluoropyridin-2-yl)phenyl]propan-2-ol], for which the IC50 worked out at 0.019 µM. `CC(C)(C)Cc1c[nH]c(CC(O)(c2ccc(-c3ccc(F)cn3)cc2)C(F)F)n1` (stereo not drawn) [Example 40, 3-[4-(2,2-dimethylpropyl)-1H-imidazol-2-yl]-1,1-difluoro-2-[4-(5-fluoropyridin-2-yl)phenyl]propan-2-ol]: the IC50 is 0.015 µM.

For `OC(Cc1nc(CC2(C(F)(F)F)CC2)c[nH]1)(c1ccc(-c2ccc(F)cn2)cc1)C(F)F` (stereo not drawn) [Example 45, 1,1-difluoro-2-[4-(5-fluoropyridin-2-yl)phenyl]-3-(4-{[1-(trifluoromethyl)cyclopropyl]methyl}-1H-imidazol-2-yl)propan-2-ol], the 50% inhibitory concentration (IC50) came to 0.071 µM.

Turning to `CC(O)(Cc1nc(CC2(C(F)(F)F)CC2)c[nH]1)c1ccc(-c2ccc(F)cn2)cc1` (stereo not drawn) [Example 49, 2-[4-(5-fluoropyridin-2-yl)phenyl]-1-(4-{[1-(trifluoromethyl)cyclopropyl]methyl}-1H-imidazol-2-yl)propan-2-ol], the 50% inhibitory concentration (IC50) was 0.054 µM.

With `CC(O)(Cc1nc(CC2(C(F)(F)F)CC2)c[nH]1)c1ccc(-n2cccn2)cc1` (stereo not drawn) [Example 52, 2-[4-(1H-pyrazol-1-yl)phenyl]-1-(4-{[1-(trifluoromethyl)cyclopropyl]methyl}-1H-imidazol-2-yl)propan-2-ol], the IC50 amounted to 0.019 µM. The same measure, in the same setting: the result for `CC(C)(C)Cc1c[nH]c(CC(C)(O)c2ccc(-n3cccn3)cc2)n1` (stereo not drawn) [Example 60, 1-[4-(2,2-dimethylpropyl)-1H-imidazol-2-yl]-2-[4-(1H-pyrazol-1-yl)phenyl]propan-2-ol] reads 0.023 µM; that for `CC(C)(C)Cc1c[nH]c(CC(O)(c2ccc(-n3cccn3)cc2)C(F)F)n1` (stereo not drawn) [Example 75, 3-[4-(2,2-dimethylpropyl)-1H-imidazol-2-yl]-1,1-difluoro-2-[4-(1H-pyrazol-1-yl)phenyl]propan-2-ol], 0.011 µM; that for `CC(C)(C)Cc1c[nH]c(CC(O)(c2ccc(-n3cccn3)cc2)C(F)(F)F)n1` (stereo not drawn) [Example 78, 3-[4-(2,2-dimethylpropyl)-1H-imidazol-2-yl]-1,1,1-trifluoro-2-[4-(1H-pyrazol-1-yl)phenyl]propan-2-ol], 0.017 µM.
